Assays:
[1] = molecular target: T1, human peroxisome proliferator-activated receptor (PPAR) α (Homo sapiens, UniProt Q07869); experiment: Test of transcriptional activation on human PPARα (luciferase reporter, transfected CHO cells); type: cell-based; settings: CHO cells cotransfected with yeast DNA-binding domain/human PPARα ligand-binding domain fusion and reporter plasmid; luciferase after 24 hours, corrected with Renilla internal standard
T1 construct: expressed in transfected cells; host or cells: CHO cells
T1 sequence (Q07869 239-466 limits assumed): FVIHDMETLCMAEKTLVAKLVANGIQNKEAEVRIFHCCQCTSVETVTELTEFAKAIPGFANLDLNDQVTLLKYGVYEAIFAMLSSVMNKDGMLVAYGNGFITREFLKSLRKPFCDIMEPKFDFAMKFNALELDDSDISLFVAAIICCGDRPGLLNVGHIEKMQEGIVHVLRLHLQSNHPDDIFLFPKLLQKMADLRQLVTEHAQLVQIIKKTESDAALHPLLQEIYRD
Procedure: Test of Transcriptional Activation on Human Peroxisome Proliferator-activated Receptor (PPAR) α
The CHO cells were cultured in a Dulbecco-modified Eagle's medium containing 10% delipid fetal calf serum (FCS/DMEM). To these cells were cotransfected receptor plasmid and its reporter plasmid (STRATAGENE Corp.) that express fused protein of DNA-binding domain being transcription factor of yeast with ligand-binding domain of human PPARα (Biochemistry, 1993, 32, 5598), and luciferase plasmid of Renilla (Promega Corp.) for internal standard, using lipofectamine. Thereafter, testing compound or (8S)-HETE being a control compound was added in the 10% SFCS/DMEM and both luciferase activities were measured after 24 hours, which were corrected with internal standard.

[2] = test system: male Beagle dog; experiment: Test of lipid-lowering effect in Beagle dog; type: in vivo; settings: serum; oral 0.03 mg/kg/day once a day for 14 days; before vs after administration
Procedure: Test of Lipid-lowering Effect
To a 27-month old male Beagle dog (HRA Beagle; Convance Research Products Inc.) was orally administered testing compound (0.3 mg/mL) in weak aqueous alkali solution sealed in a gelatin capsule once a day for continuous 14 days (0.03 mg/kg/day). For the feed during the period of administration, standard diet (Canine diet, PMI nutrition International Inc.) was used. Blood was collected before start of administration and after administration for 14 days, and total cholesterol value in serum and triglyceride value were measured by enzymic method [Cholesterol E-Test Wako (Wako Pure Chemical Industries,Ltd.), Liquitec TGII reagent 1, 2 (Rosch) and standard serum for measurement of lipid (Rosch) were used]. The decreasing rates of total cholesterol value and triglyceride value were calculated, respectively, according to following calculation formula. Decreasing rate (%)=(Measured value before administration−Measured value after administration)/Measured value before administration×100 [Result]

melting point	SMILES	also measured
	CCCCC/C=C\C/C=C\C=C\[C@@H](O)C/C=C\CCCC(=O)O [(8S)-HETE, reference compound]	EC50 [1]: 1300 nM
118 to 120 °C	CC[C@@H](Cc1ccc(OC)c(C(=O)NCc2ccc(Oc3ccc(F)c(F)c3)cc2)c1)C(=O)O [Example 9, (2S)-2-{[3-(N-{[4-(3,4-Difluorophenoxy)phenyl]methyl}carbamoyl)-4-methoxyphenyl]methyl}butyric acid]	EC50 [1]: 1.6 nM
140 to 142 °C	CC[C@@H](Cc1ccc(OC)c(C(=O)NCc2ccc(Oc3cc(F)cc(F)c3)cc2)c1)C(=O)O [Example 10, (2S)-2-{[3-(N-{[4-(3,5-Difluorophenoxy)phenyl]methyl}carbamoyl)-4-methoxyphenyl]methyl}butyric acid]	Decreasing rate Total cholesterol [2]: 28%; Decreasing rate Triglyceride [2]: 50%; EC50 [1]: 2.9 nM
93 to 95 °C	CC[C@@H](Cc1ccc(OC)c(C(=O)NCc2ccc(Oc3cccc(F)c3F)cc2)c1)C(=O)O [Example 11, (2S)-2-{[3-(N-{[4-(2,3-Difluorophenoxy)phenyl]methyl}carbamoyl)-4-methoxyphenyl]methyl}butyric acid]	
116 to 118 °C	CC[C@@H](Cc1ccc(OC)c(C(=O)NCc2ccc(Oc3cc(F)ccc3F)cc2)c1)C(=O)O [Example 13, (2S)-2-{[3-(N-{[4-(2,5-Difluorophenoxy)phenyl]methyl}carbamoyl)-4-methoxyphenyl]methyl}butyric acid]	
106 to 108 °C	CC[C@@H](Cc1ccc(OC)c(C(=O)NCc2ccc(Oc3c(F)cccc3F)cc2)c1)C(=O)O [Example 14, (2S)-2-{[3-(N-{[4-(2,6-Difluorophenoxy)phenyl]methyl}carbamoyl)-4-methoxyphenyl]methyl}butyric acid]	
125 to 127 °C	CC[C@@H](Cc1ccc(OC)c(C(=O)NCc2ccc(Oc3cc(C(F)(F)F)cc(C(F)(F)F)c3)cc2)c1)C(=O)O [Example 15, (2S)-2-({3-[N-({4-[3,5-Bis(trifluoromethyl)phenoxy]phenyl}methyl)carbamoyl]-4-methoxyphenyl}methyl)butyric acid]	
	CC[C@@H](Cc1ccc(OC)c(C(=O)NCc2ccc(Oc3cc(F)c(F)c(F)c3)cc2)c1)C(=O)OC [Example 16, Methyl (2S)-2-{[4-methoxy-3-(N-{[4-(3,4,5-trifluorophenoxy)phenyl]methyl}carbamoyl)phenyl]methyl}butyrate]	EC50 [1]: 2.3 nM
133 to 135 °C	CC[C@@H](Cc1ccc(OC)c(C(=O)NCc2ccc(Oc3cc(F)c(F)c(F)c3)cc2)c1)C(=O)O [Example 17, (2S)-2-{[4-Methoxy-3-(N-{[4-(3,4,5-trifluorophenoxy)phenyl]methyl}carbamoyl)phenyl]methyl}butyric acid]	
145 to 148 °C	CC[C@@H](Cc1ccc(OC)c(C(=O)NCc2ccc(Oc3cc(Cl)cc(Cl)c3)cc2)c1)C(=O)O [Example 30, (2S)-2-{[4-Methoxy-3-(N-{[4-(3,5-dichlorophenoxy)phenyl]methyl}carbamoyl)phenyl]methyl}butyric Acid]	
139 to 141 °C	CC[C@@H](Cc1ccc(OC)c(C(=O)NCc2ccc(Oc3ccc(Cl)c(Cl)c3)cc2)c1)C(=O)O [Example 31, (2S)-2-{[4-Methoxy-3-(N-{[4-(3,4-dichlorophenoxy)phenyl]methyl}carbamoyl)phenyl]methyl}butyric acid]	
117 to 118 °C	CC[C@@H](Cc1ccc(OC)c(C(=O)NCc2ccc(Oc3ccc(Cl)c(F)c3)cc2)c1)C(=O)O [Example 32, (2S)-2-{[4-Methoxy-3-(N-{[4-(4-chloro-3-fluorophenoxy)phenyl]methyl}carbamoyl)phenyl]methyl}butyric acid]	
140 to 142 °C	CC[C@@H](Cc1ccc(OC)c(C(=O)NCc2ccc(Oc3ccc(Br)c(Cl)c3)cc2)c1)C(=O)O [Example 33, (2S)-2-{[4-Methoxy-3-(N-{[4-(4-bromo-3-chlorophenoxy)phenyl]methyl}carbamoyl)phenyl]methyl}butyric acid]	
141 to 142 °C	CC[C@@H](Cc1ccc(OC)c(C(=O)NCc2ccc(Oc3ccc(Cl)c(C(F)(F)F)c3)cc2)c1)C(=O)O [Example 34, (2S)-2-{[4-Methoxy-3-(N-{[4-(4-chloro-3-trifluoromethylphenoxy)phenyl]methyl}carbamoyl)phenyl]methyl}butyric acid]	
125 to 128 °C	CC[C@@H](Cc1ccc(OC)c(C(=O)NCc2ccc(Oc3cc(F)cc(C(F)(F)F)c3)cc2)c1)C(=O)O [Example 35, (2S)-2-{[4-Methoxy-3-(N-{[4-(3-fluoro-5-trifluoromethylphenoxy)phenyl]methyl}carbamoyl)phenyl]methyl}butyric acid]	

From patent US7361783B2, “(2S)-2-ethylphenylpropionic acid derivative” (Kyorin Pharmaceutical Co., Ltd., priority 2002, dated 2008)
